Laboratory results reported in patent US20240018158A1, “BRM TARGETING COMPOUNDS AND ASSOCIATED METHODS OF USE” (Prelude Therapeutics Incorporated, priority 2020, published 2024).

Target: SMARCA2 (Homo sapiens (Human), UniProt P51531)
Assay: SMARCA2 HiBiT degradation assay in HEK293T cells
Format: cell-based
Settings: 293T HiBiT assay, 24 h; for DC50: read-out: DC50 (SM2-293T) SMARCA2 degradation potency; for Dmax: HEK-293T, read-out: Dmax % (SM2-293T) maximum SMARCA2 degradation within the concentrations tested
Method: HiBiT peptide knock-in of SMARCA2 in LgBiT expressing HEK293T cells was performed by CRISPR-mediated tagging system as described Promega. The homozygous HiBiT knock-in on c-terminus SMARCA2 was confirmed by sanger sequence. SMARCA2-HiBiT knock-in Hela monoclonal cell (CS302366) and SMARCA4-HiBiT knock-in Hela monoclonal cell (CS3023226) were purchased from Promega. The heterozygous HiBiT-knock-in was confirmed by sanger sequence in both SMARCA2-HiBiT and SMARCA4-HiBiT monoclonal cells. Compounds were prepared in a low dead volume plate at 3-fold serial dilution, and then transferred 25 nL/well into a 384 well plate (Corning: #356661) by Agilent Bravo liquid dispenser. SMARCA2-HiBiT monoclonal HEK293T cells were added at 5,000/well/25 uL into the compound containing 384 well plate. After 24 h incubation, 25 uL/well of Nano-Glo HiBiT Lytic detection buffer (Promega: N3050) was added to the wells and incubate for 10 min on a shaker, centrifuged for 5 min, and then RLU was detected on a microplate reader (Envision, PerkinElmer). The RLU ratio values are normalized to percent inhibition as follows: % inhibition=((HC−LC)−(compound−LC))/(HC−LC))*100, where HC=high control=mean signal of DMSO only; LC=low control=mean signal of 100% inhibition of RLU by 1 μM PRT1001728. An 11-point dose response curve for each compound will be generated using normalized % inhibition to determine IC50 values based on the equation: Y=Bottom+((Top-Bottom)/(1+((IC50/X)^Slope))), where Y is the % inhibition in the presence of X inhibitor concentration; Top=the top plateau of the curve; Bottom=the bottom plateau of the curve; Slope=Hill coefficient; DC50=concentration of compound with 50% degradation in relation to top/high control. DC50 values were determined by using XLfit Model 205.

Chain of SMARCA2 (P51531 whole entry): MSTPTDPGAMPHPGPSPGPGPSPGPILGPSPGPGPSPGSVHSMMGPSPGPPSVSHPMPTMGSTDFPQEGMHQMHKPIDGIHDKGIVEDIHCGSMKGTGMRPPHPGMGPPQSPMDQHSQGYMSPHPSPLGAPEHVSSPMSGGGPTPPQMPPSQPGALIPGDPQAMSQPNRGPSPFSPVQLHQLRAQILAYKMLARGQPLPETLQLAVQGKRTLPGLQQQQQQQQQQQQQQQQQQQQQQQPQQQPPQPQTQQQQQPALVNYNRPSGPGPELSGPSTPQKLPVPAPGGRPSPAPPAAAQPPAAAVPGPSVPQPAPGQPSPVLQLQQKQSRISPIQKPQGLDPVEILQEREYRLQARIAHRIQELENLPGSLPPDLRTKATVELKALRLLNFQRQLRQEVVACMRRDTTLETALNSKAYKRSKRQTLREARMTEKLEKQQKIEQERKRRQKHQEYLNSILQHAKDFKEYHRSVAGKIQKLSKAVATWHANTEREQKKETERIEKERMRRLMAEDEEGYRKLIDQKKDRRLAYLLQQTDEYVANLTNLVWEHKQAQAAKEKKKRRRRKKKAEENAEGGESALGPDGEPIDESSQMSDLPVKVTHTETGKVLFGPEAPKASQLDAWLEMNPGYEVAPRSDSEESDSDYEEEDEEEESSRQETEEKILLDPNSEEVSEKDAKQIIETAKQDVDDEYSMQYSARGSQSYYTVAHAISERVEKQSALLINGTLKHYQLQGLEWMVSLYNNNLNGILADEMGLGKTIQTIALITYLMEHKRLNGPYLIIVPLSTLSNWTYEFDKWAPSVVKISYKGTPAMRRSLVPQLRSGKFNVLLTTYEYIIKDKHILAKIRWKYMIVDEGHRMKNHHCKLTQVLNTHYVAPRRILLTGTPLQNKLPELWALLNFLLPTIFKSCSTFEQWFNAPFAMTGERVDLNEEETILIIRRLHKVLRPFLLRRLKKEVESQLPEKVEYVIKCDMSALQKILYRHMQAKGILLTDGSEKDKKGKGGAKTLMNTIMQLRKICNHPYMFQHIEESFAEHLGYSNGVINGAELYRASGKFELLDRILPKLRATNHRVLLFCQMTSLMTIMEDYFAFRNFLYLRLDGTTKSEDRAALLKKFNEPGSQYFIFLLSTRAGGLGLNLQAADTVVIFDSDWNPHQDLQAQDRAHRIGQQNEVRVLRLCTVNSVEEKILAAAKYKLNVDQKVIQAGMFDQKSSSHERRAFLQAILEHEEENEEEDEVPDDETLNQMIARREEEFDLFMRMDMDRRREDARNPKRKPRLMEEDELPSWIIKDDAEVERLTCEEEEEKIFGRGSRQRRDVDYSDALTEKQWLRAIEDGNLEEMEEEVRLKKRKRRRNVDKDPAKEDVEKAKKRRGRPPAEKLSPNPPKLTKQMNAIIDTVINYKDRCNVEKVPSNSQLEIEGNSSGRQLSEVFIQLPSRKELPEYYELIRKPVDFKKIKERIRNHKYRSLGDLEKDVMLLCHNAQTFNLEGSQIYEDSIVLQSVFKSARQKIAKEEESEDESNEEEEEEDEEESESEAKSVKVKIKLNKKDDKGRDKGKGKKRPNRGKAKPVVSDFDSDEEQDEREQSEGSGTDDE

SMILES: Cc1ncsc1-c1ccc([C@H](C)NC(=O)[C@@H]2C[C@@H](O)CN2C(=O)[C@@H](c2cc(OCCN3C4CCC3CC(CN3CCN5c6cc(-c7ccccc7O)nnc6NCC5C3)C4)no2)C(C)C)cc1 (stereo partly drawn) [Example 78, (2S,4R)-4-hydroxy-1-((2R)-2-(3-(2-(3-((2-(2-hydroxyphenyl)-5,6,6a,7,9,10-hexahydro-8H-pyrazino[1′,2′:4,5]pyrazino[2,3-c]pyridazin-8-yl)methyl)-8-azabicyclo[3.2.1]octan-8-yl)ethoxy)isoxazol-5-yl)-3-methylbutanoyl)-N-((S)-1-(4-(4-methylthiazol-5-yl)phenyl)ethyl)pyrrolidine-2-carboxamide]
- DC50: < 100 nM
- Dmax: > 75%

SMILES: Cc1ncsc1-c1ccc([C@H](C)NC(=O)[C@@H]2C[C@@H](O)CN2C(=O)[C@@H](c2cc(CCCN3CCN4c5cc(-c6ccccc6O)nnc5NCC4C3)no2)C(C)C)cc1 (stereo partly drawn) [Example 74, (2S,4R)-4-hydroxy-1-((2R)-2-(3-(3-(2-(2-hydroxyphenyl)-5,6,6a,7,9,10-hexahydro-8H-pyrazino[1′,2′:4,5]pyrazino[2,3-c]pyridazin-8-yl)propyl)isoxazol-5-yl)-3-methylbutanoyl)-N-((S)-1-(4-(4-methylthiazol-5-yl)phenyl)ethyl)pyrrolidine-2-carboxamide]
- DC50: < 100 nM
- Dmax: > 75%

SMILES: Cc1ncsc1-c1ccc([C@H](C)NC(=O)[C@@H]2C[C@@H](O)CN2C(=O)[C@@H](c2cc(OCCN3CCCC(CN4CCN5c6cc(-c7ccccc7O)nnc6NC[C@H]5C4)CC3)no2)C(C)C)cc1 (stereo partly drawn) [Example 84, (2S,4R)-4-hydroxy-1-((2R)-2-(3-(2-(4-(((S)-2-(2-hydroxyphenyl)-5,6,6a,7,9,10-hexahydro-8H-pyrazino[1′,2′:4,5]pyrazino[2,3-c]pyridazin-8-yl)methyl)azepan-1-yl)ethoxy)isoxazol-5-yl)-3-methylbutanoyl)-N-((S)-1-(4-(4-methylthiazol-5-yl)phenyl)ethyl)pyrrolidine-2-carboxamide]
- DC50: < 100 nM
- Dmax: > 75%

SMILES: Cc1ncsc1-c1ccc([C@H](C)NC(=O)[C@@H]2C[C@@H](O)CN2C(=O)[C@@H](NC(=O)OCCN2CCC(N3CCN4c5cc(-c6ccccc6O)nnc5NC[C@H]4C3)CC2)C(C)(C)C)cc1 [Example 80, 2-(4-((S)-2-(2-hydroxyphenyl)-5,6,6a,7,9,10-hexahydro-8H-pyrazino[1′,2′:4,5]pyrazino[2,3-c]pyridazin-8-yl)piperidin-1-yl)ethyl ((S)-1-((2S,4R)-4-hydroxy-2-(((S)-1-(4-(4-methylthiazol-5-yl)phenyl)ethyl)carbamoyl)pyrrolidin-1-yl)-3,3-dimethyl-1-oxobutan-2-yl)carbamate]
- DC50: < 100 nM
- Dmax: > 75%

SMILES: Cc1ncsc1-c1ccc([C@H](C)NC(=O)[C@@H]2C[C@@H](O)CN2C(=O)[C@@H](c2cc(OCCN3CCC(N4CCN5c6cc(-c7ccccc7O)nnc6NC[C@H]5C4)C(C)C3)no2)C(C)C)cc1 (single isomer, unassigned) [Example 56]
- DC50: < 100 nM
- Dmax: > 75%

SMILES: Cc1ncsc1-c1ccc([C@H](C)NC(=O)[C@@H]2C[C@@H](O)CN2C(=O)[C@@H](NC(=O)CN2CC(N3CCN4c5cc(-c6ccccc6O)nnc5NCC4C3)C2)C(C)(C)C)cc1 (stereo partly drawn) [Example 66, (2S,4R)-4-hydroxy-1-((2S)-2-(2-(3-(2-(2-hydroxyphenyl)-5,6,6a,7,9,10-hexahydro-8H-pyrazino[1′,2′:4,5]pyrazino[2,3-c]pyridazin-8-yl)azetidin-1-yl)acetamido)-3,3-dimethylbutanoyl)-N-((S)-1-(4-(4-methylthiazol-5-yl)phenyl)ethyl)pyrrolidine-2-carboxamide]
- DC50: 100 to 1000 nM
- Dmax: > 75%

SMILES: Cc1ncsc1-c1ccc([C@H](C)NC(=O)[C@@H]2C[C@@H](OC(=O)C(C)C)CN2C(=O)[C@@H](c2cc(OCCN3CCC(CN4CCN5c6cc(-c7ccccc7O)nnc6NC[C@H]5C4)CC3)no2)C(C)C)cc1 [Example 52, (3R,5S)-1-((R)-2-(3-(2-(4-(((S)-2-(2-hydroxyphenyl)-5,6,6a,7,9,10-hexahydro-8H-pyrazino[1′,2′:4,5]pyrazino[2,3-c]pyridazin-8-yl)methyl)piperidin-1-yl)ethoxy)isoxazol-5-yl)-3-methylbutanoyl)-5-(((S)-1-(4-(4-methylthiazol-5-yl)phenyl)ethyl)carbamoyl)pyrrolidin-3-yl isobutyrate]
- DC50: < 100 nM
- Dmax: > 75%

SMILES: Cc1ncsc1-c1ccc([C@H](C)NC(=O)[C@@H]2C[C@@H](O)CN2C(=O)[C@@H](c2cc(OCC(=O)N3CCC(N4CCN5c6cc(-c7ccccc7O)nnc6NC[C@H]5C4)C(C)C3)no2)C(C)C)cc1 (single isomer, unassigned) [Example 31]
- DC50: < 100 nM
- Dmax: > 75%

SMILES: Cc1ncsc1-c1ccc([C@H](C)NC(=O)[C@@H]2C[C@@H](OC(=O)C(C)C)CN2C(=O)[C@@H](c2cc(OCCN3CCC(N4CCN5c6cc(-c7ccccc7O)nnc6NC[C@H]5C4)CC3)no2)C(C)C)cc1 [Example 81, (3R,5S)-1-((R)-2-(3-(2-(4-((S)-2-(2-hydroxyphenyl)-5,6,6a,7,9,10-hexahydro-8H-pyrazino[1′,2′:4,5]pyrazino[2,3-c]pyridazin-8-yl)piperidin-1-yl)ethoxy)isoxazol-5-yl)-3-methylbutanoyl)-5-(((S)-1-(4-(4-methylthiazol-5-yl)phenyl)ethyl)carbamoyl)pyrrolidin-3-yl isobutyrate]
- DC50: < 100 nM
- Dmax: > 75%

SMILES: Cc1ncsc1-c1ccc([C@H](C)NC(=O)[C@@H]2C[C@@H](O)CN2C(=O)[C@@H](c2cc(OCCN3CCC(N4CCC(N5CCN6c7cc(-c8ccccc8O)nnc7NC[C@H]6C5)CC4)CC3)no2)C(C)C)cc1 [Example 44, (2S,4R)-4-hydroxy-1-((R)-2-(3-(2-(4-((S)-2-(2-hydroxyphenyl)-5,6,6a,7,9,10-hexahydro-8H-pyrazino[1′,2′:4,5]pyrazino[2,3-c]pyridazin-8-yl)-[1,4′-bipiperidin]-1-yl)ethoxy)isoxazol-5-yl)-3-methylbutanoyl)-N-((S)-1-(4-(4-methylthiazol-5-yl)phenyl)ethyl)pyrrolidine-2-carboxamide]
- DC50: < 100 nM
- Dmax: > 75%

SMILES: CC(=O)O[C@@H]1C[C@@H](C(=O)N[C@@H](C)c2ccc(-c3scnc3C)cc2)N(C(=O)[C@@H](c2cc(OCCN3CCN4c5cc(-c6ccccc6O)nnc5NCC4C3)no2)C(C)C)C1 (stereo partly drawn) [Example 9, (3R,5S)-1-((2R)-2-(3-(2-(2-(2-hydroxyphenyl)-5,6,6a,7,9,10-hexahydro-8H-pyrazino[1′,2′:4,5]pyrazino[2,3-c]pyridazin-8-yl)ethoxy)isoxazol-5-yl)-3-methylbutanoyl)-5-(((S)-1-(4-(4-methylthiazol-5-yl)phenyl)ethyl)carbamoyl)pyrrolidin-3-yl acetate]
- DC50: < 100 nM
- Dmax: > 75%

SMILES: Cc1ncsc1-c1ccc([C@H](C)NC(=O)[C@@H]2C[C@@H](O)CN2C(=O)[C@@H](NC(=O)C2CN(CCCN3CCN4c5cc(-c6ccccc6O)nnc5NCC4C3)C2)C(C)(C)C)cc1 (stereo partly drawn) [Example 82, (2S,4R)-4-hydroxy-1-((2S)-2-(1-(3-(2-(2-hydroxyphenyl)-5,6,6a,7,9,10-hexahydro-8H-pyrazino[1′,2′:4,5]pyrazino[2,3-c]pyridazin-8-yl)propyl)azetidine-3-carboxamido)-3,3-dimethylbutanoyl)N-((S)-1-(4-(4-methylthiazol-5-yl)phenyl)ethyl)pyrrolidine-2-carboxamide]
- DC50: < 100 nM
- Dmax: > 75%

SMILES: Cc1ncsc1-c1ccc([C@H](C)NC(=O)[C@@H]2C[C@@H](O)CN2C(=O)[C@@H](c2cc(OC3CCN(CCCN4CCN5c6cc(-c7ccccc7O)nnc6NC[C@H]5C4)C3)no2)C(C)C)cc1 (stereo partly drawn) [Example 83, (2S,4R)-4-hydroxy-1-((2R)-2-(3-((1-(3-((S)-2-(2-hydroxyphenyl)-5,6,6a,7,9,10-hexahydro-8H-pyrazino[1′,2′:4,5]pyrazino[2,3-c]pyridazin-8-yl)propyl)pyrrolidin-3-yl)oxy)isoxazol-5-yl)-3-methylbutanoyl)N-((S)-1-(4-(4-methylthiazol-5-yl)phenyl)ethyl)pyrrolidine-2-carboxamide]
- DC50: < 100 nM
- Dmax: > 75%

SMILES: Cc1ncsc1-c1ccc([C@H](C)NC(=O)[C@@H]2C[C@@H](O)CN2C(=O)[C@@H](c2cc(OCCN3CCC(N4CCN5c6cc(-c7ccccc7O)nnc6NC[C@H]5C4)C3)no2)C(C)C)cc1 (single isomer, unassigned) [Example 19]
- DC50: < 100 nM
- Dmax: > 75%
